Experimental data taken from patent publication US8507506B2, “Theophylline derivative inhibits osteoporosis” (Kaohsiung Medical University, priority 2011, dated 2013).
Marks after values point to notes of the source that are not given here.

Columns and labels:
Assay type in all cases: cell-based
[1] = test system: TRAP mRNA in RAW264.7 cells; test: RT-PCR, RANKL-induced mRNA expression of TRAP; settings: for RANKL-induced mRNA expression level of TRAP: RAW264.7 cells, 24 hours, CTL 100%, mean ± SEM
Text: (§1) The culture medium was discarded. […] [table] f) Running • A.

[2] = test system: NFATc1 mRNA in RAW264.7 cells; test: RT-PCR, RANKL-induced mRNA expression of NFATc1; settings: for RANKL-induced mRNA expression level of NFATc1: RAW264.7 cells, 24 hours, CTL 100%, mean ± SEM
Text: as §1

[3] = test system: c-Src mRNA in RAW264.7 cells; test: RT-PCR, RANKL-induced mRNA expression of c-Src; settings: for RANKL-induced mRNA expression level of c-Src: RAW264.7 cells, 24 hours, CTL 100%, mean ± SEM
Text: as §1

[4] = test system: RAW264.7 cells stimulated by RANKL; test: TRAP stain, differentiation into multinuclear osteoclast-like cells; settings: 10 ng/ml RANKL for 5 days, FIG. 3
Description: 10^3 cells were plated per well in 96-well plates. […] PBS, 50 μl/well fluid was left. […] 50 μl/well fluid was left, and then Substrate 200 μl/well was added to react for 15 minutes in room temperature. After the cells were stained in red, the cells were washed by ddH2O. At last, the cells were observed and taken pictures by an optical microscopy (40× and 200×), and Autopano Pro V1.4.2, Kolor, Paris, was used to proceed the pictures taken in 40×. Then, the number of the osteoclasts with at least three nuclei was counted and compared with the control group. […] Fixative solution: Citrate solution 25 ml, Acetone 65 ml, 37% Formaldehyde 8 ml. Stored in dark in 4° C. • 2. Citrate solution: 18 mM citric acid, 9 mM sodium citrate, and 12 mM NaCl were solved in 100 ml water, pH 3.6, and then 0.001% Triton X-100 was added at last. • 3. Substrate: 2 mg AS-MX (Naphthol As-Mx-phosphate disodium) and 6 mg Fast Red Violet LB were solved in 1 M Sodium tartrate acetone (0.1 M, pH 5) and 0.1 M, 19 ml sodium acetate.

[5] = test system: TRAP activity of RAW264.7 cells induced by RANKL; test: TRAP activity assay; settings: 10 ng/ml RANKL for 5 days, different concentrations, FIG. 4
Description: 10^3 cells were plated per well in 96-well plates. […] When the reaction fluid became yellow, 0.1 M, 100 μl/well NaOH was added to terminate the reaction, and OD405 was examined in 37° C. b) 3 μl/well supernatant was examined by Bio-Red DC Protein Assay to detect the protein concentration.

[6] = test system: IL-1β secretion by RAW264.7 cells; test: ELISA, RANKL-induced secretion of IL-1β; settings: RAW264.7, ELISA, FIG. 6
Description: Under RANKL stimulation, mononuclear RAW264.7 cells can secrete pro-inflammatory cytokines such as TNF-α, IL-1, IL-6, etc. ELISA is used to measure that KMUP-1 influences RANKL to induce the secretion of pro-inflammatory cytokines. […] 10^5 cells were plated per well in 24-well plates. […] After 24 hours reaction, the reaction fluid was centrifuged (13,000 rpm, 4° C., 20 minutes), and then the supernatant was tasted by ELISA kit (R&D system and eBioscience™) to detect the amount of TNF-α, IL-1β, IL-6, and IL-10. The experimental process is followed with the instructions of the kit.

[7] = test system: JNK phosphorylation in RAW264.7 cells; test: Western blot, phosphorylation of JNK induced by RANKL; settings: 7.5 μM and 10 μM, RANKL 15 minutes, FIG. 10
Description: (§2) MAP kinases including ERK, JNK and p38 are stimulated by RANKL to be phosphorylized and further influence the down-stream key transcription factors which induce the differentiation of osteoclast-like cells such as c-Fos, NFATc1, etc. Before estimating the drug effect, 10 ng/ml RANKL are used to induce the phosphorylation of ERK, JNK and p38 at different time points. […] It is shown that KMUP-1 can reduce the activation of MAP kinases induced by RANKL. […] The proteins were collected by scraping and were centrifuged (13,000 rpm, 4° C., 30 minutes). The supernatant was stored in an eppendorf in −80° C. • c) Concentrations of the proteins were examined by Bio-Red DC Protein Assay. After knowing the concentrations, the proteins were diluted to specific concentrations by adding ddH2O. One forth volume of the diluted proteins of sample buffer was added into the diluted proteins and was put in boiled water for 5 min and then was chilled on ice for 5 minutes. After short time centrifugation, the diluted proteins could be injected into wells of a gel. The gel was run at 100 V for 10 minutes until the proteins were driven to the intersection between a loading gel and a running gel. Then, the voltage was swopped to 200 V for 40 minutes. • d) A PVDF membrane was immersed in Methanol for 2 minutes. After two washes in ddH2O, the membrane was immersed in transfer buffer for 15 minutes. […]

[8] = test system: p38 phosphorylation in RAW264.7 cells; test: Western blot, phosphorylation of p38 induced by RANKL; settings: 7.5 μM and 10 μM, RANKL 15 minutes, FIG. 11
Description: as §2

[9] = test system: osteoclast-like cells, OCL; test: Intracellular calcium (fura-2/AM), RANKL-induced calcium influx; settings: 1 μM and 10 μM, FIGS. 14 and 15
[10] = test system: MMP-2 protein in RAW264.7 cells; test: Western blot, amount of MMP-2 protein induced by RANKL; settings: RANKL 24 hours, FIG. 18
Description: KMUP-1 influences there major up-stream signal transduction pathways which are related to RANK/RANKL. Western blot is used to estimate the amount of matrix metalloproteinase (MMP)-2 and MMP-9 which are related to the dissolution of osteoclast-like cells, and the enzyme activity of MMP-2 and MMP-9 are estimated via Gelatin Zymography. […] The proteins were collected by scraping and were centrifuged (13,000 rpm, 4° C., 30 minutes). The supernatant was stored in an eppendorf in −80° C. • c) Concentrations of the proteins were examined by Bio-Red DC Protein Assay. After knowing the concentrations, the proteins were diluted to specific concentrations by adding ddH2O. One forth volume of the diluted proteins of sample buffer was added into the diluted proteins and was put in boiled water for 5 min and then was chilled on ice for 5 minutes. After short time centrifugation, the diluted proteins could be injected into wells of a gel. The gel was run at 100 V for 10 minutes until the proteins were driven to the intersection between a loading gel and a running gel. Then, the voltage was swopped to 200 V for 40 minutes. • d) A PVDF membrane was immersed in Methanol for 2 minutes. After two washes in ddH2O, the membrane was immersed in transfer buffer for 15 minutes. A SDS-PAGE was put on the membrane, and wet paper was flanked them. […]

[11] = 10 ng/ml RANKL, summary of Table 1

Cn1c(=O)c2c(ncn2CCN2CCN(c3ccccc3Cl)CC2)n(C)c1=O [KMUP-1, 7-[2-[4-(2-Chlorophenyl)piperazin-1-yl]ethyl] theophylline]
effect on mRNA expression of TRAP induced by RANKL (in words) [1, 11]: inhibits the mRNA expression | RANKL-induced mRNA expression level of TRAP ([1]; RANKL 10 ng/ml + KMUP-1 1 μM): 422.4 ± 24.8% | RANKL-induced mRNA expression level of TRAP ([1]; RANKL 10 ng/ml + KMUP-1 2.5 μM): 427.7 ± 39.3% | RANKL-induced mRNA expression level of TRAP ([1]; RANKL 10 ng/ml + KMUP-1 5 μM): 359.9 ± 20.7% ^b | RANKL-induced mRNA expression level of TRAP ([1]; RANKL 10 ng/ml + KMUP-1 7.5 μM): 293.8 ± 30.1% ^b | RANKL-induced mRNA expression level of TRAP ([1]; RANKL 10 ng/ml + KMUP-1 10 μM): 259.3 ± 18.3% ^b | effect on mRNA expression of NFATc1 induced by RANKL (in words) [2, 11]: inhibits the mRNA expression | RANKL-induced mRNA expression level of NFATc1 ([2]; RANKL 10 ng/ml + KMUP-1 1 μM): 256.9 ± 7.5% | RANKL-induced mRNA expression level of NFATc1 ([2]; RANKL 10 ng/ml + KMUP-1 2.5 μM): 184.7 ± 4.2% ^b | RANKL-induced mRNA expression level of NFATc1 ([2]; RANKL 10 ng/ml + KMUP-1 5 μM): 161.8 ± 2.9% ^b | RANKL-induced mRNA expression level of NFATc1 ([2]; RANKL 10 ng/ml + KMUP-1 7.5 μM): 132.9 ± 2.4% ^b | RANKL-induced mRNA expression level of NFATc1 ([2]; RANKL 10 ng/ml + KMUP-1 10 μM): 121.5 ± 4.5% ^b | effect on mRNA expression of c-Src induced by RANKL (in words) [3, 11]: not obviously inhibits | RANKL-induced mRNA expression level of c-Src ([3]; RANKL 10 ng/ml + KMUP-1 1 μM): 101.4 ± 4.5% | RANKL-induced mRNA expression level of c-Src ([3]; RANKL 10 ng/ml + KMUP-1 2.5 μM): 103.9 ± 2.7% | RANKL-induced mRNA expression level of c-Src ([3]; RANKL 10 ng/ml + KMUP-1 5 μM): 95.8 ± 2.8% ^ | RANKL-induced mRNA expression level of c-Src ([3]; RANKL 10 ng/ml + KMUP-1 7.5 μM): 91.5 ± 4.5% ^ | RANKL-induced mRNA expression level of c-Src ([3]; RANKL 10 ng/ml + KMUP-1 10 μM): 98.6 ± 6.2% ^ | differentiation into multinuclear osteoclast-like cells (TRAP staining) [4]: obviously express inhibition phenomenon related to dose | TRAP activity induced by RANKL [5]: can be inhibited, and the inhibiting effect is related to dose | RANKL-induced secretion of IL-1 [6]: presents a dose dependent inhibition phenomenon | phosphorylation of JNK induced by RANKL [7]: can efficiently inhibit the phosphorylation of ERK, JNK and p38 induced by RANKL | phosphorylation of p38 induced by RANKL [8]: can efficiently inhibit the phosphorylation of ERK, JNK and p38 induced by RANKL | RANKL-induced extracellular calcium influx [9]: can inhibit it | amount of MMP-2 protein induced by RANKL [10]: can efficiently inhibit the amount of MMP-2 and MMP-9 proteins
